Reference: ChEMBL document CHEMBL1201862, “PubChem BioAssay data set” (2004)
Active and inactive are the calls of the source.

Legend:
[1] = cytotoxicity toward NIH3T3 fibroblasts, dose response, counter-screen, cell-based, ATP luminescence, mouse fibroblasts (AID 2010); assay type: functional;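 also: cells exposed to compound for about 90 hours before reading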
[2] = inhibitors of intracellular T. cruzi replication, confirmation, NIH3T3 host cells, beta-gal luminescence (AID 2044); assay type: functional, cell-based;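 also: intracellular parasites grown in NIH/3T3 mouse fibroblasts as host cells; luminescent beta-galactosidase reporter signal from transgenic T. cruzi replicating inside host cells; inhibitors lower the luminescence signal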
Cytochrome P450 2C9 = Cytochrome P450 2C9 (Homo sapiens, UniProt P11712)
Chain of Cytochrome P450 2C9 (P11712 whole entry): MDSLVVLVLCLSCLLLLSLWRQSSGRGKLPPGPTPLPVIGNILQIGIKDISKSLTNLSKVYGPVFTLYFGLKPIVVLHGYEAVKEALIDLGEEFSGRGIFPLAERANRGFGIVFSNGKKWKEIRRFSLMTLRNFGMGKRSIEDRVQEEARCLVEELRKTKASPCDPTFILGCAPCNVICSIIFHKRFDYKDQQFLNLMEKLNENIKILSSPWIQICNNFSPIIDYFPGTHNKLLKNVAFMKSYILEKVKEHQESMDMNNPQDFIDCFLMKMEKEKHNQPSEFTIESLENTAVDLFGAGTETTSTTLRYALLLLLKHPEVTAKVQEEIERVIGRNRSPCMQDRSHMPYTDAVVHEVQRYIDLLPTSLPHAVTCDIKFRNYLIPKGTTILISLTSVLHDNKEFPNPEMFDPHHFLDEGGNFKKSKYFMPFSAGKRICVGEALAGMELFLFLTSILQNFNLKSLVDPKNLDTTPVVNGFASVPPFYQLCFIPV

Cytochrome P450 2D6 = Cytochrome P450 2D6 (Homo sapiens, UniProt P10635);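 also: CYP2D6 member of a cytochrome P450 panel assay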
Chain of Cytochrome P450 2D6 (P10635 whole entry): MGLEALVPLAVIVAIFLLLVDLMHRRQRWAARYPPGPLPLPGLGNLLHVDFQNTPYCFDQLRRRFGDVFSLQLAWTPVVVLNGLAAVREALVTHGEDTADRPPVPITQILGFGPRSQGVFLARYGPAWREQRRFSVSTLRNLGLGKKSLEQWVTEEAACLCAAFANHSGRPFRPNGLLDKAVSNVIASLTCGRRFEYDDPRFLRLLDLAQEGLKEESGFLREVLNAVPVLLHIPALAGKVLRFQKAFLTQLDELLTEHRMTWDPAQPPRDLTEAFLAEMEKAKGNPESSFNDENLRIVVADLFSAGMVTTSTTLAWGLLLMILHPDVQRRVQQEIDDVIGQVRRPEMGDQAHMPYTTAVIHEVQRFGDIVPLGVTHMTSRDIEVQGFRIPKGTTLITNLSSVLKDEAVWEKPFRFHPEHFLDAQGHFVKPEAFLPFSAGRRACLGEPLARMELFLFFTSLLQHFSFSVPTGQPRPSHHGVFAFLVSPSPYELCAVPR

Cytochrome P450 2C19 = Cytochrome P450 2C19 (Homo sapiens, UniProt P33261); test: Cytochrome panel assay with activity outcomes. Panel member name: p450-cyp2c19 Compounds with AC50 equal or less than 10 uM are considered active; assay type: functional
Chain of Cytochrome P450 2C19 (P33261 whole entry): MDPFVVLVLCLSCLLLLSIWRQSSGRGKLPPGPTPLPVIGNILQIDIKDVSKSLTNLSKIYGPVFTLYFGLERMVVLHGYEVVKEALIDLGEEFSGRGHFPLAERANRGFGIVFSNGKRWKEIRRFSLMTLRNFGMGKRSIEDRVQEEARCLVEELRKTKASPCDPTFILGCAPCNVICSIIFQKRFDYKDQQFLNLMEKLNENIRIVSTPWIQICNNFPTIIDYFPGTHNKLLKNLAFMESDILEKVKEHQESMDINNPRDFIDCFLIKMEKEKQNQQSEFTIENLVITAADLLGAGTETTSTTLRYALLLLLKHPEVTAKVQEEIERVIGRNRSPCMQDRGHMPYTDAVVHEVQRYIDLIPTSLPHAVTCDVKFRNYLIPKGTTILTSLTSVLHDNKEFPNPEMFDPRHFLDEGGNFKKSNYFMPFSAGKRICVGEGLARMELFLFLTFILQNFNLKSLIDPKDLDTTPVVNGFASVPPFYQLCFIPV

Cytochrome P450 3A4 = Cytochrome P450 3A4 (Homo sapiens, UniProt P08684);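 also: CYP3A4 tested as one member of a cytochrome P450 panel screen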
Chain of Cytochrome P450 3A4 (P08684 whole entry): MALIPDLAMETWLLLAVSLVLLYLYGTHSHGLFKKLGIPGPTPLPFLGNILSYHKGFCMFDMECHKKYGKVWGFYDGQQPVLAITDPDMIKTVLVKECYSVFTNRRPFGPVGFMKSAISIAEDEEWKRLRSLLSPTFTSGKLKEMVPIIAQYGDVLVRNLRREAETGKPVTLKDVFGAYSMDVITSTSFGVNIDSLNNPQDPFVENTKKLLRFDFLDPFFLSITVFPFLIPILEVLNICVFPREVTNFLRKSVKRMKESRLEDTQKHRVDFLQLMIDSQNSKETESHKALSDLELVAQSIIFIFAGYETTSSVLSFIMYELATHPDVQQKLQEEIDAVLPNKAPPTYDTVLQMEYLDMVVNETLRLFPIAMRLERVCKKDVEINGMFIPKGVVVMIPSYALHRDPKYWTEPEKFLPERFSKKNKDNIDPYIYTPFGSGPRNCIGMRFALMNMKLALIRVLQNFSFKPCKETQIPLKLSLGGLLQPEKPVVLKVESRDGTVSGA

Protein RecA = target: T1, Protein RecA (Mycobacterium tuberculosis, UniProt P9WHJ3); test: Fluorescence Cell-Free Homogeneous Dose Retest to Identify Inhibitors of RecA-Intein Splicing Activity. [Related pubchem assays (depositor defined):AID2097, AID2223, AID489010, AID492950]; assay type: functional
T1 sequence (P9WHJ3 whole entry): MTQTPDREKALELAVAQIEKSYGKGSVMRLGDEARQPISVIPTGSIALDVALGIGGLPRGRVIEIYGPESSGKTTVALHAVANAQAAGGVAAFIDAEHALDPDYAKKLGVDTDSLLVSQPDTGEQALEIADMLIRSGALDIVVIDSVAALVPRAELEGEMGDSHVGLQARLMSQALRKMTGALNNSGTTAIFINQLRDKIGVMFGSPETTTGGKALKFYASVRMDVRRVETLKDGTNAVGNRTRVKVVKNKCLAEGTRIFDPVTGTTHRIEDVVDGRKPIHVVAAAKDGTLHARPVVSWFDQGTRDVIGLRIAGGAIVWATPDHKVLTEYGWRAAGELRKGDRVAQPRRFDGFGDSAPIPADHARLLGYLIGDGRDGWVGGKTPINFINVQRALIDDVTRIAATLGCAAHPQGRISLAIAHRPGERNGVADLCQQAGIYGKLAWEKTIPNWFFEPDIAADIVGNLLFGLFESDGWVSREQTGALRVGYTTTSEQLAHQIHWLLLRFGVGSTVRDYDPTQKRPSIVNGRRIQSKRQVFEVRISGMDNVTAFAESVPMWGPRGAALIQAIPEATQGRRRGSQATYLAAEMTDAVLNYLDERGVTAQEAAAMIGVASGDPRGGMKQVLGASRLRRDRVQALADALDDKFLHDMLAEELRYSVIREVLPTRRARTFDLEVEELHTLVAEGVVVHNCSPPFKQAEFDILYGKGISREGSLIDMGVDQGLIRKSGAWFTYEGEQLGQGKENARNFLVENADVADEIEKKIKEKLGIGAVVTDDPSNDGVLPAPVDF

CCCCCC(=O)Nc1cc(S(=O)(=O)N2CCOCC2)ccc1N1CCN(C)CC1
EC50 [1]: > 60 µM (not active)
EC50 [2]: 0.813 µM (active)

CC#CCOC(=O)c1c(C)nc2sc3c(c2c1N)CC[C@@H](O)C3
AC50 (Cytochrome P450 2C9): 15.8 µM (inconclusive)
AC50 (Cytochrome P450 2D6): 31.6 µM (inconclusive)

Cn1c(=O)cnc2cnc(Oc3ccccc3)nc21
AC50 (Cytochrome P450 2C19; read-out: AC50): 39.8 µM (inconclusive)

COC(=O)[C@@]1(Cc2ccccc2)[C@H]2c3cc(C(=O)N(C)C)n(Cc4ccc(O)c(OC)c4)c3C[C@H]2CN1C(=O)c1ccccc1
AC50 (Cytochrome P450 2D6): 31.6 µM (inconclusive)

CCN1CCCC1CNC(=O)c1ccc(Sc2ccc(F)cc2)c([N+](=O)[O-])c1 (stereo not given)
EC50 [1]: > 60 µM (inconclusive)
EC50 [2]: 0.879 µM (active)

Nc1n[nH]c2ccccc12
AC50 (Cytochrome P450 3A4): 3.98 µM (inconclusive)

Cc1c(CCC(C)C)c(-n2ccnc2C)n2c(nc3ccccc32)c1C#N
AC50 (Cytochrome P450 2C9): 3.98 µM (inconclusive)
AC50 (Cytochrome P450 3A4): 14.1 µM (inconclusive)

O=[N+]([O-])c1ccc(C2=Nn3c(nnc3-c3ccc(Cl)cc3)SC2)o1
AC50 (Cytochrome P450 2C9): 7.94 µM (inconclusive)
AC50 (Cytochrome P450 2D6): 5.01 µM (inconclusive)

Cn1c(=O)c(-c2cccc(F)c2)nc2cncnc21
AC50 (Cytochrome P450 3A4): 20 µM (inconclusive)

Cc1ccccc1C(=O)N1CCc2ccccc2C1
AC50 (Cytochrome P450 2C9): 5.62 µM (inconclusive)
AC50 (Cytochrome P450 3A4): 6.31 µM (inconclusive)

Cc1nc(C(=O)Nc2ccc(Cl)cc2)sc1C1(C)CC(c2cccc([N+](=O)[O-])c2)=NO1 (stereo not given)
EC50 [1]: > 60 µM (not active)
EC50 [2]: 0.545 µM (active)

CSc1ccccc1NC(=O)c1cc(-c2cccnc2)nc2ccc(Br)cc12
EC50 [1]: > 60 µM (not active)
EC50 [2]: 2 µM (active)

CN(C)c1ncnc2ccc(-c3ccccc3C#N)cc12
AC50 (Cytochrome P450 3A4): 1.58 µM (inconclusive)

COc1ccc(-c2nc3cnc(N4CCN(C)CC4)nc3n(Cc3cccs3)c2=O)cc1
AC50 (Cytochrome P450 2C19): inconclusive

Cc1cc2c(cc1C)NC1=C(O)[C@@H](c3c[nH]c4ccc(COc5ccccc5)cc34)OC1=N2
AC50 (Cytochrome P450 2C9): 7.94 µM (inconclusive)

c1ccc(Nc2cccc(Nc3ccccc3)c2)cc1
EC50 [1]: > 60 µM (not active)
EC50 [2]: 0.937 µM (active)

O=C1CCC[C@@H]2Cc3[nH]c4c(Cl)ccc(Cl)c4c3[C@@H]3CCN1[C@H]23
EC50 [1]: > 60 µM (not active)
EC50 [2]: 1.33 µM (active)

CCCOc1ccc(C(=O)NC(=S)Nc2nc3ccc(C)cc3s2)cc1
AC50 (Cytochrome P450 2C19; read-out: AC50): 15.8 µM (inconclusive)

O=C(CSc1nc2ccccc2c2ccccc12)c1ccccc1
AC50 (Cytochrome P450 2C19; read-out: AC50): 6.31 µM (inconclusive)
AC50 (Cytochrome P450 3A4): 3.98 µM (inconclusive)

O=C(O)C(=O)Cc1ccc2c(c1)OCO2
AC50 (Cytochrome P450 2C19): inconclusive

COC(=O)[C@@H]1CC[C@H](C)[C@@H](c2ccc(C)cc2)N1C(=O)c1ccc(/C=N\O[C@@H](C)CN2CCCc3nc(C)c(C)cc32)cc1
AC50 (Cytochrome P450 2C9): 3.16 µM (inconclusive)
AC50 (Cytochrome P450 2D6): 6.31 µM (inconclusive)
AC50 (Cytochrome P450 3A4): 3.98 µM (inconclusive)

CCCC/C=C/C(NC(=O)c1ccco1)c1ccccc1 (stereo not given)
AC50 (Cytochrome P450 2D6): 39.8 µM (inconclusive)

O=c1c2ccccc2c(-c2ccc(Br)cc2)nn1Cc1ccccc1
AC50 (Cytochrome P450 2C9): 3.55 µM (inconclusive)
AC50 (Cytochrome P450 2C19; read-out: AC50): 5.62 µM (inconclusive)
AC50 (Cytochrome P450 3A4): 25.1 µM (inconclusive)

Cc1nc(-c2cccnc2)sc1C(N)=O
AC50 (Cytochrome P450 2C19; read-out: AC50): 5.01 µM (inconclusive)
AC50 (Cytochrome P450 3A4): 28.2 µM (inconclusive)

COc1ccc(-c2cn3c([n+]2-c2ccccc2)SCC3)cc1
EC50 [1]: > 60 µM (not active)
EC50 [2]: 1.3 µM (active)

C#CCCCO/N=C1/C[C@@H](O)[C@@H](O)[C@@H]2[C@@H]3C(=O)N(C[C@@H]4CCCO4)C(=O)[C@H]3CC[C@H]12
AC50 (Cytochrome P450 3A4): 6.31 µM (inconclusive)

N#Cc1ccc(CN2CCCC3(CCNCC3)C2)cc1
AC50 (Cytochrome P450 2D6): 20 µM (inconclusive)

Clc1ccc(NC2=NCCCS2)cc1Cl
EC50 [1]: > 60 µM (not active)
EC50 [2]: 1.8 µM (active)

O=C1Nc2ccccc2C(O)(C(=O)NCc2ccc3c(c2)OCO3)N1c1ccc(Cl)c(Cl)c1 (stereo not given)
AC50 (Cytochrome P450 2D6): 1.12 µM (inconclusive)

O=C1C2CCC(C(O)C2)N1Cc1ccccc1 (stereo not given)
AC50 (Cytochrome P450 3A4): 17.8 µM (inconclusive)

N#C/C(=C(/O)CN1CCCCC1)c1nc(-c2ccc(Cl)cc2)cs1
AC50 (Cytochrome P450 2C19; read-out: AC50): 10 µM (inconclusive)
AC50 (Cytochrome P450 3A4): 10 µM (inconclusive)

CCN1CCN(C(c2ccccn2)c2c(NC(=O)c3ccccc3)sc(C)c2C)CC1 (stereo not given)
AC50 (Cytochrome P450 2C19; read-out: AC50): 17.8 µM (inconclusive)

COc1ncc2nc(C)c(=O)n(-c3ccccc3)c2n1
AC50 (Cytochrome P450 2C19; read-out: AC50): 39.8 µM (inconclusive)
AC50 (Cytochrome P450 3A4): 25.1 µM (inconclusive)

CCCC1(C(=O)OC)C=C2C(=C(c3ccccc3)C(=O)C2C)CN1 (stereo not given)
AC50 (Cytochrome P450 3A4): 10 µM (inconclusive)

CCc1cc2c(nc1CC)CCN(CC/C(C)=N/OCC[C@@H]1C=C[C@H](OC(C)=O)[C@H](COC(C)=O)O1)C2
AC50 (Cytochrome P450 3A4): 3.16 µM (inconclusive)

O=C(/C=C/c1cn(-c2ccccc2)nc1-c1cccc(Cl)c1)N1CCN(c2ccccn2)CC1
EC50 [1]: > 60 µM (not active)
EC50 [2]: 1.72 µM (active)

O=C(N[C@@]1(C(=O)O)C[C@@H]1c1ccccc1)c1ccccc1
AC50 (Cytochrome P450 2C19): inconclusive

O=c1c(-c2ccc(Cl)cc2)nc2cnc(N3CCNCC3)nc2n1-c1ccccc1
AC50 (Cytochrome P450 2C9): 15.8 µM (inconclusive)
AC50 (Cytochrome P450 3A4): 12.6 µM (inconclusive)

COC(=O)c1scc(C)c1NC(=O)Cc1ccccc1
AC50 (Cytochrome P450 3A4): 22.4 µM (inconclusive)

COCCn1c(=O)c(-c2ccccc2)nc2cnc(OC)nc21
AC50 (Cytochrome P450 2C9): 20 µM (inconclusive)
AC50 (Cytochrome P450 3A4): 25.1 µM (inconclusive)

COc1ccc(N2CCN(C(CNC(=O)C(=O)NCCCn3ccnc3)c3cccnc3)CC2)cc1 (stereo not given)
EC50 [1]: 10.4 µM (active)
EC50 [2]: < 0.1 µM (active)

COCCn1c(=O)cnc2cnc(Oc3cccc(Cl)c3)nc21
AC50 (Cytochrome P450 3A4): 31.6 µM (inconclusive)

CN1CCN(c2ccccc2NC(=O)c2ccc(-c3ccc(Br)cc3)o2)CC1
EC50 [1]: 4.08 µM (active)
EC50 [2]: 2.18 µM (active)

COc1ccc(C(=O)N2CCC3(CC2)CN(c2ccncc2)C3)cc1
AC50 (Cytochrome P450 2C9): 39.8 µM (inconclusive)
AC50 (Cytochrome P450 2D6): 25.1 µM (inconclusive)
AC50 (Cytochrome P450 3A4): 15.8 µM (inconclusive)

Cc1nn(Cc2ccc(C(=O)Nc3ccc(C(=O)OC(C)C)cc3)o2)c(C)c1Cl
EC50 [1]: > 60 µM (not active)
EC50 [2]: 2.86 µM (active)

Cc1ccc(-n2c(C)cc(C(=S)N3CCOCC3)c2C)cc1C
AC50 (Cytochrome P450 2D6): 22.4 µM (inconclusive)
AC50 (Cytochrome P450 3A4): 31.6 µM (inconclusive)

CC(C(=O)N1CCc2ccccc21)N1CCN(Cc2ccccc2)CC1 (stereo not given)
EC50 [1]: > 60 µM (not active)
EC50 [2]: 0.793 µM (active)

O=C(CCN1CCCCC1)N1CCc2c([nH]c3ccccc23)[C@H]1c1cccnc1
AC50 (Cytochrome P450 2D6): 3.16 µM (inconclusive)
AC50 (Cytochrome P450 2C19): inconclusive

COc1ccc(C(=O)c2ccc([N+](=O)[O-])cc2Cl)cc1
EC50 [1]: > 30 µM (not active)
EC50 [2]: 2.15 µM (active)

C=CCSc1ncccc1C(=O)NCc1ccc(C)cc1
AC50 (Cytochrome P450 2C9): 12.6 µM (inconclusive)

CCC(C)N1C(=O)C2C(C(=O)Nc3cccc(OC)c3)C3C=CC2(O3)C1C(=O)NC1CCCCC1C (stereo not given)
AC50 (Cytochrome P450 2C9): 12.6 µM (inconclusive)
AC50 (Cytochrome P450 2D6): 7.08 µM (inconclusive)
AC50 (Cytochrome P450 2C19; read-out: AC50): 28.2 µM (inconclusive)

N#Cc1c(Cl)cccc1-n1ccnc1
AC50 (Cytochrome P450 2C9): 2.82 µM (inconclusive)
AC50 (Cytochrome P450 2D6): 7.08 µM (inconclusive)

Cc1onc(-c2ccccc2Cl)c1C(=O)NCC(=O)O
AC50 (Cytochrome P450 2C19; read-out: AC50): 39.8 µM (inconclusive)

CCCc1n[nH]c2c1C(c1ccc(OCCN3CCOCC3)c(OCC)c1)C(C#N)=C(N)O2 (stereo not given)
EC50 (Protein RecA): 10 µM (active)

O=C(CN1CCCC1)N/N=C/c1ccc(-c2cccc(Cl)c2)o1
AC50 (Cytochrome P450 2C9): 15.8 µM (inconclusive)

O=C(N/N=C/c1ccc(Cl)cc1Cl)c1cccc(F)c1
AC50 (Cytochrome P450 2D6): 8.91 µM (inconclusive)
AC50 (Cytochrome P450 3A4): 31.6 µM (inconclusive)

Cc1cccc(NC(=O)Nc2ccncc2)c1
EC50 [1]: > 60 µM (not active)
EC50 [2]: 0.781 µM (active)

O=C(O)/C=C\c1c[nH]cn1 [CIS-UROCANIC ACID]
AC50 (Cytochrome P450 3A4): 0.251 µM (inconclusive)
